The values that follow come from PubChem BioAssay (NCI).

Values joined by “and” are separate entries in the source; they are usually repeats but may differ in a detail not shown here. Equal entries are not always repeated.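 Briefly, cells in 96-well plates were exposed to five compound concentrations for 48 h, and endpoints were estimated by linear interpolation. The concentration for 50% growth inhibition is given as GI50. TGI: concentration producing complete growth inhibition.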

Common to all, as to experiment: NCI tumour cell line growth inhibition, 48 h
Assay [1] has as its system K-562 leukemia.
For assay [2], the system named is M14 melanoma.
For assay [3], the system named is HCT-15 colon.
The subject of assay [4] is HCT-116 colon.
Assay [5] concerns SF-295 CNS.
Assay [6] has as its system OVCAR-5 ovarian.
Assay [7] relates to SF-539 CNS.
For assay [8], the system named is KM12 colon.
The test system of assay [9] is A549 NSCLC.
The subject of assay [10] is NCI/ADR-RES ovarian.

As for `CC1=N/C(=C\c2ccc([N+](=O)[O-])cc2)C(=O)O1`, the TGI in assay [1], in [2], in assay [3], in assay [4], in [5] and in assay [6] was above 100 µM each time. In addition, the TGI in [7], in assay [8] and in [9] was above 100 µM in each case.
On to `CCCCC#Cc1cccc(=O)o1`, for which the GI50 was 4.5 µM in assay [2]; 5.34 µM in [4]; above 100 µM in [5]; above 100 µM in assay [6]; above 100 µM in assay [7]; 9.46 µM in assay [10]. Also, the GI50 in assay [8] was 37.1 µM; in [9] it was 45.6 µM. For the same compound, the TGI in assay [2] was above 100 µM; in [4], 30.4 µM; in assay [5], above 100 µM; in assay [6], above 100 µM; in assay [7], above 100 µM; in assay [10], above 100 µM. The TGI in assay [8] and in [9] was above 100 µM each time.
`COc1cc2c3c(n(CCCNCCN4CCOCC4)c(=O)c2cc1OC)-c1cc2c(cc1C3=O)OCO2`: the GI50 was 7.72 µM in assay [1]; 0.453 µM and 2.14 µM in [3]; below 0.005 µM in assay [4]; < 0.005 µM and 0.0343 µM in assay [5]; 0.913 µM and 2.31 µM in assay [6]; 1.08 µM in assay [7]. Further, the GI50 in [10] is 0.11 µM; in [8], 0.554 µM and 1.48 µM; in assay [9], 0.182 µM and 1.37 µM. Moreover, the TGI in assay [1] is above 67.1 µM; in [4] it was 0.0975 µM; in assay [5] it was 2.13 µM and 1.55 µM; in assay [6], 1.74 µM and 5.16 µM; in [7] it was 3.88 µM; in assay [10], 0.69 µM. Also, the TGI in assay [8] was 1.6 µM and 4.69 µM; in [9], 5.42 µM.
For `CC(C)(C)C(=O)OCC(COC(=O)C(C)(C)C)[N+](=O)[O-]`, the TGI in [1], in assay [2], in assay [3], in assay [4], in assay [5] and in [6] was above 100 µM throughout. In addition, the TGI in [7], in assay [8] and in [9] was above 100 µM in each case.
As for `O=[N+]([O-])c1ccc(O)c2ncccc12`, the TGI in assay [1] was > 100 µM and 15.5 µM; in assay [2] it was > 100 µM and 10.5 µM; in assay [3], > 100 µM and 18.8 µM; in [4], > 100 µM and 12.5 µM; in [5], 82.4 µM and 13.1 µM; in [6], > 100 µM and 40.5 µM. Besides, the TGI is > 100 µM and 20.8 µM in assay [7]; > 100 µM and 16.5 µM in assay [8]; > 100 µM and 12.9 µM in assay [9]. Further, the GI50 in [5] was 22 µM and 2.28 µM; in [8] it was 3.92 µM and 4.31 µM.
Regarding `Cc1ccc(-n2c(-c3ccc(Cl)cc3)cs/c2=N\NC(=O)COc2n[nH]c(=O)c3ccccc23)cc1`, the GI50 in assay [1] was above 100 µM; in assay [2] it was above 100 µM; in assay [3], above 100 µM; in [5] it was 19.7 µM; in [6], above 100 µM; in assay [7], 19.6 µM. Moreover, the GI50 in [10], in [8] and in assay [9] was above 100 µM in each case. The TGI is above 100 µM in assay [1]; above 100 µM in assay [2]; above 100 µM in assay [3]; above 100 µM in assay [5]; above 100 µM in assay [6]; 71.8 µM in [7]. Besides, the TGI in [10], in assay [8] and in assay [9] was above 100 µM in each case.
For the compound `c1ccc2c(c1)ccc1c3ccccc3ccc21`, the GI50 in [1], in assay [2], in [3], in assay [4], in assay [6] and in [7] was above 50 µM throughout. In addition, the GI50 in assay [10], in assay [8] and in assay [9] was above 50 µM throughout. In addition, the TGI in assay [1], in assay [2], in assay [3], in assay [4], in assay [6] and in [7] was above 50 µM throughout. The TGI in assay [10], in [8] and in assay [9] was above 50 µM each time.
Consider `CN(C)CCNC(=O)c1cccc2c1nc(-c1ccccn1)c1ccccc12`, for which the TGI in [1] was 48.8 µM; in assay [2], 32.2 µM; in [3], 30.6 µM; in assay [4] it was 23 µM; in assay [5], 41.1 µM; in assay [6], 38.1 µM. Further, the results for the TGI in [7], in assay [8] and in [9] were 30.4 µM, above 100 µM and 27.9 µM, respectively.
For `CC(C)CC(=O)CC(O)C(Cl)(Cl)Cl` (centres undefined), the TGI in assay [1], in assay [2], in assay [3], in assay [4], in assay [5] and in [6] was above 100 µM in each case. Also, the TGI in assay [10], in assay [8] and in assay [9] was above 100 µM each time.
For `Cc1nn(C)c(=O)c2nn(-c3ccccc3)c(C)c12`, the TGI in [1], in assay [2], in assay [3], in assay [4], in assay [5] and in assay [6] was above 100 µM throughout. Also, the TGI in [7], in assay [8] and in [9] was above 100 µM in each case.
Turning to `COc1ccc(S(=O)(=O)N/N=C(\C)CN2C(=O)c3ccccc3C2=O)cc1`, the TGI in [1], in [2], in [3], in [4], in assay [5] and in assay [6] was above 100 µM throughout. The TGI in [7], in assay [8] and in assay [9] was above 100 µM each time.
